Assay [1] is described as follows: luciferase reporter signal suppression in cells – H4 neuroglioma cells, luminescence, dose response (AID 1990). It counts as functional, cell-based.
A short description of assay [2]: mRNA 3' processing disruption, beta-gal signal increase – luminescence, S. cerevisiae SKY197-pL101, dose response (AID 2525). Type of assay: functional, cell-based.
Assay [3] is described as follows: Luminescence Cell-Based Dose Confirmation HTS to Identify Inhibitors of Polyadenylation. Type of assay: functional.
The nature of assay [4]: Luminescence Cell-Based Dose Response HTS to Identify Inhibitors of 5'UTR Stem-Loop Driven Prion Protein mRNA Translation in H4 Neuroglioblastoma Cells. [Related pubchem assays: 1827 (Project Summary), 1813 (Primary HTS)]. It counts as functional.
The nature of assay [5]: alpha-synuclein stem-loop luciferase translation blockers – H4 neuroglioma cells, luminescence, confirmation (AID 1988). It counts as functional, cell-based.
Assay [6] in a line: viability of HCT116 lacking mutant beta-catenin – cell-based, human colon tumor, dose response (AID 1045).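 Note: HCT116 colon tumor cells with beta catenin knocked out; cells exposed to compound for 60 hours.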 It counts as functional.
The nature of assay [7]: loss of viability in HepG2 cells – cell-based, CellTiter-Glo, cherry-picked, cytotoxicity control for Shn3 inhibitor project, dose response (AID 624134). It counts as functional.
The nature of assay [8]: viability of PTEN-deleted HCT116 cells – cell-based, HCT116 PTEN knockout, dose response (AID 1047).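 Note: HCT116 colon tumor cells with PTEN knocked out; cells exposed to compound for 60 hours before readout; potency for loss of cell viability measured by luminescence.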 It counts as functional.
In assay [9] the target is Neurotensin receptor type 1 (Homo sapiens, UniProt P30989). It counts as functional.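 Note: Image-based confirmatory dose-response assay measuring agonist activity at NTR1; NTR1-expressing U2OS osteosarcoma cells imaged for beta-arrestin GFP spot formation; agonist potency where compounds increase beta-arrestin recruitment.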
Assay [10] addresses Sphingosine 1-phosphate receptor 1 (Homo sapiens, UniProt P21453). Type of assay: functional.
Assay [11] concerns the target T1, Heat shock factor protein 1 (Mus musculus, UniProt P38532).
T1 sequence (P38532 whole entry): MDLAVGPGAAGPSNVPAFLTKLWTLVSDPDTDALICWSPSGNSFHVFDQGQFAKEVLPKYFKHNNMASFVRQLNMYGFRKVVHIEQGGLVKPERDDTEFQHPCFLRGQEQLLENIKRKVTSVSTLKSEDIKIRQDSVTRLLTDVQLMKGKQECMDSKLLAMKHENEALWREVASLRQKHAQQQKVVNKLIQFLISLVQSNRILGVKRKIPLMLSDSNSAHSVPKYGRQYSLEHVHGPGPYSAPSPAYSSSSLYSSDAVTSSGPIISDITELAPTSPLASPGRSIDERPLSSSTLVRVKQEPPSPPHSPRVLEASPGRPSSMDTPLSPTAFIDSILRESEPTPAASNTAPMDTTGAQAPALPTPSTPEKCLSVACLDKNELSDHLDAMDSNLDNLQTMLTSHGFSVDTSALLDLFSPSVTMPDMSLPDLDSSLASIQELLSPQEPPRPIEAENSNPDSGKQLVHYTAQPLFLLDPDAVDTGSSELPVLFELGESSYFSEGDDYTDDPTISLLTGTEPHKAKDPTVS
Description: decrease of HSF1-responsive luciferase luminescence – cell-based, NIH3T3, dose retest, confirmation (AID 2382).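 Note: NIH3T3 fibroblasts with HSF1-driven luciferase reporter stressed by proteasome inhibitor MG132; luminescence from HSF1-driven luciferase expression after 8 hours of MG132 stress.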 Type of assay: functional.

Assay [12] in a line: reduction of Shn3 3'UTR-driven luciferase in osteoblasts – cell-based, Clone20 osteoblasts, firefly luciferase, cherry-picked, dose response (AID 624132).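 Note: firefly luciferase luminescence from reporter carrying the Shn3 3'UTR in osteoblasts.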 It counts as functional.
For assay [13], the target named is T2, Sphingosine 1-phosphate receptor 4 (Homo sapiens, UniProt O95977).
T2 sequence (O95977 whole entry): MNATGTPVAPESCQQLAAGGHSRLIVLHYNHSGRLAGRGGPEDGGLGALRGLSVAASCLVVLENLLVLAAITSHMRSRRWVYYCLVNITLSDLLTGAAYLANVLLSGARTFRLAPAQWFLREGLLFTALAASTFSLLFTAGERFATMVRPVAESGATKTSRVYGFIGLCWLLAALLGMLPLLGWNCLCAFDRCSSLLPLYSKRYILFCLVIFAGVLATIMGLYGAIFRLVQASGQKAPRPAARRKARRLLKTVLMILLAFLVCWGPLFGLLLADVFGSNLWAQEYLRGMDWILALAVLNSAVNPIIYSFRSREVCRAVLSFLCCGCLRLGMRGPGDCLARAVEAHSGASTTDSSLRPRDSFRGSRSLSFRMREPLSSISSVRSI
In words: Fluorescence dose response cell-based high throughput screening assay for antagonists of the Sphingosine 1-Phosphate Receptor 4 (S1P4). [Related pubchem assays: 1524 (Confirmation in triplicates.), 1510 (Primary screen.)]. It counts as functional.

In assay [14] the target is T3, Microphthalmia-associated transcription factor (Homo sapiens, UniProt O75030).
T3 sequence (O75030 whole entry): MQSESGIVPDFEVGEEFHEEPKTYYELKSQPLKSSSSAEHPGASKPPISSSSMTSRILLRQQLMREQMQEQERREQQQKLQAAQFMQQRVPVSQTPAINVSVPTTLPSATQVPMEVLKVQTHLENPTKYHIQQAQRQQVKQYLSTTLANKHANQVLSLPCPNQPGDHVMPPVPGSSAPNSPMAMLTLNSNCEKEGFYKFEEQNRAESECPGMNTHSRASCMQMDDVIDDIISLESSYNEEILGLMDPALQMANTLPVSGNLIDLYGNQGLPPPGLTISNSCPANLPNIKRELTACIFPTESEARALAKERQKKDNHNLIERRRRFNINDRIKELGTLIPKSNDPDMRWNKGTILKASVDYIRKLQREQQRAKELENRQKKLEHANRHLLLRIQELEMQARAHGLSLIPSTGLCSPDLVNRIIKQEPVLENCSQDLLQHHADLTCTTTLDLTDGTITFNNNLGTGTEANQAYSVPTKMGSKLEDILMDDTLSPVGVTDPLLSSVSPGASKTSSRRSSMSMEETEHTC
Description: reducers of TRPM1 reporter luminescence, concentration series – cell-based, SK-MEL-5, cherry-picked, set 3, MITF inhibitor project, dose response (AID 493073).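 Note: SK-MEL-5 melanoma cells with luciferase driven by the MITF target TRPM1 promoter.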 It counts as functional.

The nature of assay [15]: non-specific 3'UTR reporter inhibition in Clone20-Shn3RL – cell-based, Renilla luciferase, cherry-picked, counter-screen for Shn3 inhibitor project, dose response (AID 624133). Type of assay: functional. In general terms: The purpose of a counterscreen is to sort out artefacts and off-target activity.
For a further assay, the target named is Cytochrome P450 2C9 (Homo sapiens, UniProt P11712). The note with it: Potency.
The target of the next assay is Protein Rev (Human immunodeficiency virus type 1 group M subtype B (isolate WMJ22)(HIV-1), UniProt P05866). Description: inhibitors of Rev protein–RRE RNA complex – biochemical, protein-RNA interaction, dose response (AID 842). The arrangement: species or system Human immunodeficiency virus 1.

Each structure is given as a SMILES string. The source made the active and inactive calls. Where only a bound is given, the exact number is not on record here.

Chain of Neurotensin receptor type 1 (P30989 whole entry): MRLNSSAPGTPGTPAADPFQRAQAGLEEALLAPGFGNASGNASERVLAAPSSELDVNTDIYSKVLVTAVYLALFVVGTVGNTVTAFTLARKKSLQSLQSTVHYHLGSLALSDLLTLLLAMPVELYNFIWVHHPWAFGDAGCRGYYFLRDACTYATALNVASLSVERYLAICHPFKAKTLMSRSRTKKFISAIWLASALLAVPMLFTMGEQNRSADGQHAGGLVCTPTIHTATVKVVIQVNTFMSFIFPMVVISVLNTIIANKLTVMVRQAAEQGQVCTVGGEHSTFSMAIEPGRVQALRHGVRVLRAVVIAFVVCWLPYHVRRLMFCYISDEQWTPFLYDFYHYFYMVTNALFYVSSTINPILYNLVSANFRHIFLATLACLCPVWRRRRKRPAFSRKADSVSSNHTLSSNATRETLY
Chain of Protein Rev (P05866 whole entry): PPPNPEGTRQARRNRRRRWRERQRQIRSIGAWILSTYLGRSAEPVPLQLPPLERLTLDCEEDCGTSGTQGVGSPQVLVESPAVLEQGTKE
Chain of Cytochrome P450 2C9 (P11712 whole entry): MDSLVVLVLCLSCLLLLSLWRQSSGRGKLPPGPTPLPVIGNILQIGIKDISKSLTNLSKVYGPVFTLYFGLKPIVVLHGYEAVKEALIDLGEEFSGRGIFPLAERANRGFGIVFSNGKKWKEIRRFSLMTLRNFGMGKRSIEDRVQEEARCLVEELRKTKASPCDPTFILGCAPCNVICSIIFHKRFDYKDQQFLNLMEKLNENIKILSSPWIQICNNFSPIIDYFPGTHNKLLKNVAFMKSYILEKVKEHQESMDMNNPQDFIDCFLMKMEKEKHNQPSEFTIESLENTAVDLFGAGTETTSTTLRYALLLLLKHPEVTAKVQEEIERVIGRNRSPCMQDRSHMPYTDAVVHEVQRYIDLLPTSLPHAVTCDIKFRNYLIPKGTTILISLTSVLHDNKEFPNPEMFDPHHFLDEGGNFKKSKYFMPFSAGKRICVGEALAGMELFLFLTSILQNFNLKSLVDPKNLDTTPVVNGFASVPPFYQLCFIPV
Chain of Sphingosine 1-phosphate receptor 1 (P21453 whole entry): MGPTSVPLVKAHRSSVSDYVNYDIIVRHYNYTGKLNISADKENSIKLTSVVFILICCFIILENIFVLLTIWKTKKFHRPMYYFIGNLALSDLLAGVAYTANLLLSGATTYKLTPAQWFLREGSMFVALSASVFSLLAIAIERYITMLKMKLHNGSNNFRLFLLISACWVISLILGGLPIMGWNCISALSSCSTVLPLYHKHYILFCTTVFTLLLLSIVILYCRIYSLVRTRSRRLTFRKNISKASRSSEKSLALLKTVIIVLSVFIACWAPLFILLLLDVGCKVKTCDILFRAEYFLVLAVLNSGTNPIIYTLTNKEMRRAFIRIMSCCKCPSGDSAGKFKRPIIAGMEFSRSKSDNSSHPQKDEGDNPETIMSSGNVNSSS

Take `O=C(Oc1c(-c2ccccc2)c(=O)n2c3c(cccc13)CC2)c1cccc([N+](=O)[O-])c1`: the EC50 – broadly, the concentration at which the effect is half-maximal – in assay [1] is 12 µM (active); in [2] it was 3.89 µM (active); in assay [3], 9.78 µM (active); in assay [4] it was 12.3 µM (active); in assay [5] it was 13 µM (active).

With `COc1ccc(Oc2cc(NC(=O)c3nn(C)cc3[N+](=O)[O-])cc([N+](=O)[O-])c2)cc1`, the EC50 in assay [6] is 0.17 µM (active); in [8], 0.219 µM (active); in assay [9] it was 8.91 µM (active); in assay [11], 8.9 µM (inconclusive). Moreover, the AC50 (as a rule, the concentration at which the activity in the assay is half-maximal) in assay [7] is 21.1 µM (active); in assay [12], 0.813 µM (active); in assay [14], 8.94 µM (active); in assay [15], 5.01 µM (active). For the same compound, the results for the IC50 in assay [10] and in [13] were 17.4 µM (not active) and 1.08 µM (active), respectively.

Regarding `CC[C@H](C)C(=O)O[C@@H]1CCC=C2C=C[C@H](C)[C@@H](CC[C@H]3C[C@@H](O)CC(=O)O3)[C@H]21`, the AC50 on Cytochrome P450 2C9 is 39.8 µM (inconclusive).

For `CC(C)CN=c1cc(-c2ccccc2)oc2ccc(Cl)cc12`, the IC50 (usually the concentration needed to halve the response being measured) on Protein Rev is > 79.4 µM (not active).
